In patent publication US20060069132A1, “Azolecarboxamide herbicides” (priority 2004, published 2006):

Experiments:
barnyardgrass = assay: Test A pre-/postemergence herbicide test; assay type: in vivo, Echinochloa crus-galli
Procedure, shortened: (§1)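 Visual injury rating on a 0–100 scale (0 no effect, 100 complete control) versus untreated controls, about ten days after treatment in greenhouse. Pre: directed soil spray onto seeded sandy loam. Post: spray to runoff on plants 2–10 cm tall at one- to two-leaf stage.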

ducksalad = assay: Test C flooded paddy test; assay type: in vivo, Heteranthera limosa; conditions: for Plant response rating, Ducksalad: visual rating after 12 to 14 days
[1] = tested on: smallflower umbrella sedge; assay: Test C flooded paddy test; assay type: in vivo, Cyperus difformis; conditions: for Plant response rating, Sedge, Umbrella: visual rating after 12 to 14 days
velvetleaf = assay: Test A pre-/postemergence herbicide test; assay type: in vivo, Abutilon theophrasti
Procedure, shortened: as §1

[2] = Postemergence, 500 g ai/ha, 0 to 100 scale, 0 no effect, 100 complete control
[3] = Postemergence, 2000 g ai/ha, 0 to 100 scale, 0 no effect, 100 complete control
[4] = Preemergence, 500 g ai/ha, visual rating, 0 to 100 scale (0 no effect, 100 complete control)
[5] = Preemergence, 2000 g ai/ha, 0 to 100 scale, 0 no effect, 100 complete control
[6] = 62 g ai/ha, scale 0 to 100 (0 no effect, 100 complete control)
[7] = 125 g ai/ha, scale of 0 to 100, 0 is no effect, 100 is complete control
[8] = 250 g ai/ha, scale 0 to 100 (0 no effect, 100 complete control)
[9] = 500 g ai/ha, scale 0 to 100 (0 no effect, 100 complete control)
[10] = Preemergence, 2000 g ai/ha, visual rating, 0 to 100 scale (0 no effect, 100 complete control)
[11] = preemergence, 500 g ai/ha, visual injury, 0 to 100 scale (0 no effect, 100 complete control)
[12] = 125 g ai/ha, scale 0 to 100 (0 no effect, 100 complete control)
[13] = 250 g ai/ha, scale of 0 to 100, 0 is no effect, 100 is complete control
[14] = Postemergence, 125 g ai/ha, 0 to 100 scale, 0 no effect, 100 complete control
[15] = preemergence, 125 g ai/ha, visual injury, 0 to 100 scale (0 no effect, 100 complete control)

Compound	Plant response rating, Barnyardgrass (barnyardgrass; [3])	Barnyardgrass plant response rating (barnyardgrass; [4])	Ducksalad plant response rating (ducksalad; [6])	Plant response rating, Ducksalad (ducksalad; [9])	Sedge, Umbrella plant response rating [1, 6]	Plant response rating, Sedge, Umbrella [1, 9]	Plant response rating, Velvetleaf (velvetleaf; [3])	Barnyardgrass plant response rating (barnyardgrass; [2])	Barnyardgrass plant response rating (barnyardgrass; [10])	Barnyardgrass plant response rating (barnyardgrass; [11])	Ducksalad plant response rating (ducksalad; 62 g ai/ha, scale 0 to 100)	Ducksalad plant response rating (ducksalad; [12])	Ducksalad plant response rating (ducksalad; [13])	Sedge, Umbrella plant response rating ([1]; 62 g ai/ha, scale 0 to 100)	Sedge, Umbrella plant response rating [1, 12]	Sedge, Umbrella plant response rating [1, 13]	Velvetleaf plant response rating (velvetleaf; [2])	Velvetleaf plant response rating (velvetleaf; [10])	Velvetleaf plant response rating (velvetleaf; [11])	further results
CCn1nc(C(C)(C)C)cc1C(=O)Nc1cccc(C(=O)NCCF)c1 [Compound 45]	100	80	0	60	55	80	65													Plant response rating, Barnyardgrass (barnyardgrass; [2]): 100; Barnyardgrass plant response rating (barnyardgrass; [5]): 95; Ducksalad plant response rating (ducksalad; [7]): 0; Plant response rating, Ducksalad (ducksalad; [8]): 60; Sedge, Umbrella plant response rating [1, 7]: 60; Plant response rating, Sedge, Umbrella [1, 8]: 80; Velvetleaf plant response rating (velvetleaf; [4]): 25; Velvetleaf plant response rating (velvetleaf; [5]): 65
CCn1nc(C(C)(C)C)cc1C(=O)Nc1cncc(C(=O)N2CC=CC2)n1 [Compound 290]	70			70		70	30	55	90	40	0	0	45	0	25	65	20	30	15	
CCn1nc(C(C)(C)C)cc1C(=O)Nc1cccc(OCCCF)c1 [Compound 138]	30	30	0	70	0	95	60	15	80			20	55		40	75	20	50	20	
C#CCNC(=O)c1cc(NC(=O)c2cc(C(C)(C)C)nn2CC)ccn1 [Compound 283]	35			0		0	35	10	30	0	0	0	0	0	0	0	15	15	0	
CCn1nc(C(C)(C)C)cc1C(=O)Nc1cccc(C(C)=O)c1 [Compound 122]	85	90	50	80	50	80	70	75	95				80			70	45	70	40	Ducksalad plant response rating (ducksalad; [7]): 80; Sedge, Umbrella plant response rating [1, 7]: 60
CCc1nc(C(C)(C)C)sc1C(=O)Nc1cccc(C(=O)NCCF)c1 [Compound 209]	70		65	80	55	80	20	30	80	60		65	65		55	65	10	75	10	
CCn1nc(C(C)(C)C)cc1C(=O)Nc1nc(C(=O)N2CC=CC2)ccc1F [Compound 281]	65			85		90	40	30	75	60	0	0	70	15	20	40	35	35	10	
C#CCNC(=O)c1cccc(NC(=O)c2sc(C(C)(C)C)nc2CC)c1 [Compound 319]	60			85		80	30	10	80	55	0	0	45	20	35	70	20	45	35	
CCn1nc(C(C)(C)C)cc1C(=O)Nc1cccc(C(=O)NC(C)C)c1 [Compound 51]		85	0	85	45	80							75			65				Barnyardgrass plant response rating (barnyardgrass; [14]): 50; Plant response rating, Barnyardgrass (barnyardgrass; [2]): 75; Barnyardgrass plant response rating (barnyardgrass; [15]): 60; Ducksalad plant response rating (ducksalad; [7]): 55; Sedge, Umbrella plant response rating [1, 7]: 50; Velvetleaf plant response rating (velvetleaf; [14]): 40; Velvetleaf plant response rating (velvetleaf; [4]): 100; Velvetleaf plant response rating (velvetleaf; [15]): 20
CCc1nc(C(C)(C)C)sc1C(=O)Nc1cccc(C(=O)NC(C)(C)C)n1 [Compound 216]	15		0	40	20	50	35	0	35	15		20	30		30	30	25	30	10	
CCn1nc(C(C)(C)C)cc1C(=O)Nc1cccc(OS(=O)(=O)CC)c1 [Compound 408]				95		85					65	85	95	60	80	85				
CCOc1cccc(NC(=O)c2cc(C(C)(C)C)nn2CC)c1 [Compound 136]	60	65	0	90	65	85	75	55	85			0	45		80	85	55	30	25	
CCn1nc(C(C)(C)C)cc1C(=O)Nc1cc(C(=O)NCC2CC2)ccn1 [Compound 155]			45	90	0	75						80	85		30	65				
